In patent US20110082220A1, “PORCINE UMAMI TASTE RECEPTORS AND USES THEREFOR” (The Regents of The University of California, priority 2007, published 2011):
Values joined by “and” are separate entries in the source; they are usually repeats but may differ in a detail not shown here. Identical values can stand only once.

Key:
[1] = test system: Pig umami receptor (T1R1/T1R3); assay: Screening assay for ligands: calcium influx via pig umami receptor in transfected CHO-K1 cells (Fluo-4 NW); assay type: cell-based; conditions: for Absorbance Mean: CHO-K1 cells with pig taste receptors and mouse G alpha 15; for Index Relative to control: ratio of calcium influx to control (no treatment = 1.00); for stimulation of the pig umami receptor (signal, in words): CHO-K1 cell system, calcium signal; for response index: example test run, background (no treatment) = response ratio 1.0, concentration not given
weaned piglets = assay: Double-choice preference test in drinking water, weaned piglets; assay type: in vivo, pigs (Landrace×Large White); conditions: 0.5 M solution vs tap water; for % of preference Mean: two minutes, ad libitum conditions
Description: This example tests preferences in drinking water for amino acids L-Glutamine and L-Lysine in weaned piglets maintained in ad libitum conditions.
A total number of 58 pigs (Landrace×Large White) of 18±2 Kg BW, half males and half females, were used in this study. The test pigs were selected according to their level of stress and behaviour in front of social isolation, reaction to novelty and training to perform a choice between two containers that had the test solution (sugar at 0.5M) and control solution (tap water) after an habituation period of four days. During the habituation period, individual pigs were maintained in contiguous pens in front of two unfamiliar red plastic containers (double-choice test) during 10 minutes every day. On the fourth day, animals were trained for performing the test. […] Selected test animals were maintained in groups of four and three pen mates under ad libitum conditions, feed and water, with a balanced diet according to their requirements. During the experimental sessions, pigs were exposed simultaneously to two different solutions (approximately 250 g in each container) for a time period of two minutes. One of the solutions was tap water (control) and the other contained a 0.5M solution of one of the amino acids tested (test). Volume depletion of both test and control solutions were recorded and the % preference related to the test solution calculated as follows: […]

## N[C@@H](CC(=O)O)C(=O)O [Aspartate]
[1]; treatment 1 mM
  Absorbance Mean: 8619
  Index Relative to control: 1.03
[1]; treatment 10 mM
  Absorbance Mean: 10352
  Index Relative to control: 1.24^1

## NC(=O)CC[C@H](N)C(=O)O [Glutamine, L-Glutamine]
[1]; listed as L-Glutamine
  stimulation of the pig umami receptor (signal, in words): high degree of stimulation
[1]; listed as glutamine
  stimulation of the pig umami receptor (signal, in words): the strongest and the most significant signal
[1]; treatment 1 mM
  Absorbance Mean: 10901
  Index Relative to control: 1.31^1
[1]; treatment 10 mM
  Absorbance Mean: 10038
  Index Relative to control: 1.20^1
Weaned piglets
  % of preference Mean: 59.56% and 79.28%
Weaned piglets; 1st study
  preferences over tap water: 60%
Weaned piglets; 2nd study
  preferences over tap water: 79%

## NCC(=O)O [Glycine]
[1]; treatment 1 mM
  Absorbance Mean: 8874
  Index Relative to control: 1.06
[1]; treatment 5 mM
  Absorbance Mean: 9543
  Index Relative to control: 1.14

## O=P(O)(O)O[C@@H]1[C@@H](O)[C@H](O)[C@@H](O)[C@H](O)[C@@H]1O [IMP, inositol monophosphate]
[1]; treatment 2.5 mM
  Absorbance Mean: 9161
  Index Relative to control: 1.10

## NC(CCP(=O)(O)O)C(=O)O [L-AP4]
[1]; treatment 5 mM
  Absorbance Mean: 8907
  Index Relative to control: 1.07
[1]; treatment 10 mM
  Absorbance Mean: 9316
  Index Relative to control: 1.12

## NCCCC[C@H](N)C(=O)O [L-Lysine]
[1]
  stimulation of the pig umami receptor (signal, in words): little or no capacity
Weaned piglets
  preference (in words): negative preference
  % of preference Mean: 37.66%
Weaned piglets; study not given
  preferences over tap water: about 38%

## CC(C)C[C@H](N)C(=O)O [Leucine]
[1]
  stimulation of the pig umami receptor (signal, in words): the strongest and the most significant signal
[1]; treatment 10 mM
  Absorbance Mean: 9163
  Index Relative to control: 1.10
[1]; treatment 30 mM
  Absorbance Mean: 10161
  Index Relative to control: 1.22^1

## Cl.NCCCC[C@H](N)C(=O)O [Lysine HCl]
[1]; treatment 10 mM
  Absorbance Mean: 9319
  Index Relative to control: 1.12
[1]; treatment 30 mM
  Absorbance Mean: 9675
  Index Relative to control: 1.16

## N[C@@H](CO)C(=O)O [Serine]
[1]; treatment 5 mM
  Absorbance Mean: 8372
  Index Relative to control: 1.00
[1]; treatment 10 mM
  Absorbance Mean: 9697
  Index Relative to control: 1.16

## C[C@H](N)C(=O)O [alanine]
[1]
  response index: 3.47

## N[C@@H](CS)C(=O)O [cysteine]
[1]
  response index: 0.83

## C/C=C(/C)C(=O)O[C@H]1C(C)=C2[C@H]([C@@H]1OC(=O)CCCCCCC)[C@@](C)(OC(C)=O)C[C@H](OC(=O)CCC)[C@@]1(O)[C@H]2OC(=O)[C@@]1(C)O [thapsigargin, reference compound]
[1]
  response index: 17.89
